Molecules are shown by their SMILES. Calls of active or inactive are those of the source. No cut-off for these calls is given here.

The IC50 is the point on the concentration scale where inhibition reaches its midpoint. A high value points to a need for much substance. For orientation: Cmax means the maximum level reached in the sampled fluid or tissue.

A short description of data set [1]: Drug uptake in human […] cell at 1.5 uM measured with in 5 min by UPLC-MS/MS analysis. In kind it is ADME, tissue-based.
The subject of data set [2] is SK-N-MC. Description: Upregulation of RB1 protein expression level in human SK-N-MC cell at 1 uM incubated for 2 hrs by western blot analysis. The data set is classed as functional, tissue-based. In general terms: A western blot detects proteins with antibodies after separation by electrophoresis.
Data set [3] has as its system Rec1. The data set can be described thus: Cytotoxicity against human REC1 cells measured after 72 hrs by MTT assay. In kind it is functional, cell-based. As to conditions: Rec1, 72 h. Background: Tetrazolium assays rely on reduction of a dye to a coloured formazan, in cell work by metabolically active cells.
The test system of data set [4] is SK-N-MC. Description: Upregulation of C-Myc protein expression level in human SK-N-MC cell at 1 uM incubated for 2 hrs by western blot analysis. The data set is classed as functional, tissue-based.
Data set [5] in a line: Cytotoxicity against human 6647 cells at 30 uM assessed as cell proliferation rate measured after 72 hrs by MTT assay relative to control. The data set is classed as functional.
Data set [6] can be described thus: Cmax in CD-1 mouse at 10 mg/kg iv measured by UPLC-MS/MS method. To be noted: in vivo. More on the design: route intravenous, dose 10 mg/kg. In kind it is ADME, organism-based.

In the case of `O=C1Nc2ccc(NC(=O)[C@H](NC(=O)c3cccn(Cc4ccc(F)c(F)c4)c3=O)c3ccccc3)cc2/C1=C/c1cnc[nH]1` (stereo in doubt), in data set [1], the Drug uptake came to 100 ng/mL. Also, the outcome in data set [2] and in data set [4] was Active. In addition, in data set [3], the IC50 turned out to be 11 µM. In data set [5], the Emax at 30 µM amounted to 84%. For the same compound, the Cmax in data set [6] was 1.3 µg/mL.

For the origin of these results see ChEMBL document CHEMBL5036349, “Development of potent dual PDK1/AurA kinase inhibitors for cancer therapy: Lead-optimization, structural insights, and ADME-Tox profile” (Eur J Med Chem, 2021).
